The record followed here is ChEMBL document CHEMBL1201862, “PubChem BioAssay data set” (2004).

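In this assay, cells in 96-well plates receive the compound at five concentrations for 48 hours. Endpoints are linearly interpolated between the surrounding concentrations. At the GI50, growth is halved.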 Activity calls are given as the source filed them. No stated cut-off is given here; in the data, active = GI50 up to about 1.1 µM and inactive = higher.

Common to all, as to assay: inhibition of tumour cell growth, NCI panel, 48 h
Experiment [1] has as its system ACHN.
In experiment [2] the test system is COLO 205.
The test system of experiment [3] is EKVX.
Experiment [4] has as its system HCC 2998.
The test system of experiment [5] is HCT-15.
Experiment [6] has as its system Hs-578T.
Experiment [7] relates to IGROV-1.
Experiment [8] concerns K562.
For experiment [9], the system named is KM12.
Experiment [10] concerns MDA-MB-231.
For experiment [11], the system named is MDA-MB-435.
The test system of experiment [12] is Malme-3M.
The test system of experiment [13] is NCI-H23.
The subject of experiment [14] is RPMI-8226.
Experiment [15] concerns RXF 393.
The subject of experiment [16] is SF-295.
In experiment [17] the test system is SF-539.
The test system of experiment [18] is SK-MEL-5.
The test system of experiment [19] is SK-OV-3.
Experiment [20] deals with SR.

With `O=C1C=C(Nc2nc(O)cc(C(=O)O)n2)c2ccccc2C1=O`, the GI50 in experiment [1] is > 100 µM (inactive); in experiment [2] it was > 100 µM (inactive); in [3] it was > 100 µM (inactive); in experiment [4], > 100 µM (inactive); in [5], > 100 µM; in experiment [6] it was > 100 µM (inactive). For the same molecule, the GI50 in experiment [7] was > 100 µM (inactive); in [8] it was > 100 µM (inactive); in experiment [9], > 100 µM (inactive); in experiment [10], > 100 µM (inactive); in experiment [11], 37.8 µM (inactive); in experiment [12] it was > 100 µM (inactive). The GI50 in experiment [13], in experiment [14], in experiment [15], in experiment [16], in [17] and in experiment [18] was > 100 µM (inactive) throughout. The GI50 in experiment [19] and in [20] was > 100 µM (inactive) throughout.
Take `CC(=O)OCC1OC(c2c(OC(C)=O)cc(C)c3c(=O)cc(/C(C(C)=O)=C(\C)O)oc23)C(OC(C)=O)C(OC(C)=O)C1OC(C)=O` (centres undefined): the GI50 is > 100 µM (inactive) in [1]; > 100 µM (inactive) in experiment [2]; > 100 µM (inactive) in [3]; > 100 µM (inactive) in [4]; > 100 µM in experiment [5]; 84.9 µM (inactive) in [6]. For the same molecule, the GI50 in experiment [7], in [8], in experiment [9], in [10], in [11] and in [12] was > 100 µM (inactive) each time. Also, the GI50 in experiment [13], in experiment [14], in experiment [15], in experiment [16], in experiment [17] and in [18] was > 100 µM (inactive) in each case. For the same molecule, the GI50 in [19] and in [20] was > 100 µM (inactive) throughout.
For the molecule `Cc1nc2c(O)cc3c4c(=O)n(C)c(=O)n(C)c4n(Cc4ccccc4)c3c2nc1C`, the GI50 in [1] was 17.9 µM (inactive); in [2] it was 13.3 µM (inactive); in experiment [3] it was 24.3 µM (inactive); in experiment [4], 22.7 µM (inactive); in experiment [5] it was 17.9 µM; in experiment [6] it was 26.5 µM (inactive). Besides, the GI50 is 34.1 µM (inactive) in experiment [8]; 21.2 µM (inactive) in [9]; 20.4 µM (inactive) in [10]; 17.4 µM (inactive) in experiment [11]; 18.7 µM (inactive) in experiment [12]; 19.3 µM (inactive) in [13]. The GI50 was 19.1 µM (inactive) in experiment [14]; 13.2 µM (inactive) in experiment [15]; 50.5 µM (inactive) in experiment [16]; 16 µM (inactive) in experiment [17]; 18.1 µM (inactive) in [18]; 17.1 µM (inactive) in [19]. Further, in [20], the GI50 is 24.4 µM (inactive).
As for `O=C(O)C1=C/C(=C(/c2ccccc2)c2cc(C(=O)O)c(O)c3ccccc23)c2ccccc2C1=O`, the GI50 in experiment [1] is > 100 µM (inactive); in [2], > 100 µM (inactive); in [3], > 100 µM (inactive); in [4], > 100 µM (inactive); in experiment [5], > 100 µM; in experiment [6], > 100 µM (inactive). In addition, the GI50 in experiment [7], in experiment [8], in [9], in experiment [10], in experiment [11] and in experiment [12] was > 100 µM (inactive) throughout. Moreover, the GI50 in experiment [13], in experiment [14], in [15], in experiment [16], in experiment [17] and in experiment [18] was > 100 µM (inactive) in each case. For the same molecule, the GI50 in experiment [19] and in experiment [20] was > 100 µM (inactive) each time.
